Here are results for twelve molecules from ChEMBL document CHEMBL1201862, “PubChem BioAssay data set” (2004).

Structures are written as SMILES.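 Cultured in 96-well plates, cells were exposed to test compound for 48 hours across five concentrations. The concentration for 50% growth inhibition is given as GI50.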 Calls of active or inactive are those of the source. Rule as the data show it: active = GI50 up to about 1.1 µM and inactive = higher.

Among the test systems are COLO 205; EKVX; HL-60; KM12; MOLT-4; NCI-H226; OVCAR-3; OVCAR-8; RPMI-8226; SF-268; SF-295; SK-MEL-28; SK-MEL-2; SK-MEL-5; SNB-19; SR; TK-10; M14.
Holding throughout (test): growth of human tumour cells (NCI), 48 h

`N#CN1CCC=C(c2cc3ccccc3[nH]2)C1`: the GI50 with COLO 205 was 388 µM (inactive); in the test with EKVX it was 270 µM (inactive); with HL-60, 164 µM (inactive); in the test on KM12 it was 161 µM (inactive); in the test with MOLT-4 it was 230 µM (inactive); with NCI-H226 it was > 448 µM (inactive). Moreover, the GI50 is 92.5 µM (inactive) with OVCAR-3; 300 µM (inactive) in the test with OVCAR-8; 170 µM (inactive) in the test with RPMI-8226; 210 µM (inactive) in the test on SF-268; 313 µM (inactive) in the test on SF-295; 382 µM (inactive) in the test on SK-MEL-28. Besides, the GI50 was 279 µM (inactive) in the test on SK-MEL-2; 148 µM (inactive) with SK-MEL-5; > 448 µM (inactive) in the test with SNB-19; 159 µM (inactive) in the test with SR; > 448 µM (inactive) in the test on TK-10.
Consider `Cn1cc(NC(=O)c2cc(NC(=O)CCCCCCCC(=O)Nc3cc(C(=O)Nc4cc(C(=O)NCCC(=N)N)n(C)c4)n(C)c3)cn2C)cc1C(=O)NCCC(=N)N`, for which the GI50 with COLO 205 is 13.2 µM (inactive); in the test with EKVX it was 22 µM (inactive); in the test with HL-60 it was 3.15 µM (inactive); in the test on KM12 it was 7.53 µM (inactive); in the test with M14, 27.9 µM (inactive); in the test on MOLT-4 it was 21.9 µM (inactive). Besides, the GI50 in the test on OVCAR-3 was 32.1 µM (inactive); with OVCAR-8, 19.1 µM (inactive); with SF-268, 19.8 µM (inactive); in the test with SF-295, > 100 µM (inactive); with SK-MEL-28, 11.7 µM (inactive); in the test on SK-MEL-2, 14.1 µM (inactive). In addition, the GI50 is 7.53 µM (inactive) in the test with SK-MEL-5, 55.1 µM (inactive) in the test with SNB-19, 5.26 µM (inactive) with SR and 15 µM (inactive) with TK-10.
In the case of `Cc1cccc(Cl)c1NC(N)=S`, the GI50 was > 100 µM (inactive) in the test on COLO 205; 48.2 µM (inactive) in the test with EKVX; 38.4 µM (inactive) in the test with HL-60; > 100 µM (inactive) in the test with KM12; 87.5 µM (inactive) with M14; 47.1 µM (inactive) in the test on MOLT-4. In addition, the GI50 was 82.8 µM (inactive) in the test with NCI-H226; 26.4 µM (inactive) with OVCAR-3; 25.8 µM (inactive) in the test with OVCAR-8; 19 µM (inactive) with RPMI-8226; 51.3 µM (inactive) in the test with SF-268; 73.8 µM (inactive) in the test on SF-295. Moreover, the GI50 in the test with SK-MEL-28 was 55.1 µM (inactive); in the test on SK-MEL-5, > 100 µM (inactive); in the test on SNB-19 it was 81.5 µM (inactive); in the test on TK-10, 50.9 µM (inactive).
With `O=C1N[C@@H]2CCCC[C@@H]2C12CCCCC2`, the GI50 with EKVX, with HL-60, with KM12, in the test with M14, in the test with MOLT-4 and in the test on NCI-H226 was > 100 µM (inactive) in each case. Also, the GI50 in the test on OVCAR-3, in the test on OVCAR-8, in the test with RPMI-8226, with SF-268, in the test on SF-295 and with SK-MEL-28 was > 100 µM (inactive) throughout. The GI50 with SNB-19, in the test with SR and in the test on TK-10 was > 100 µM (inactive) in each case.
As for `NC(=S)N/N=C(\CC1OC(=O)c2ccccc21)c1ccc(Cl)cc1` (stereo not given), the GI50 is 38.6 µM (inactive) in the test on COLO 205; 98.2 µM (inactive) in the test with HL-60; 22 µM (inactive) with KM12; 43.2 µM (inactive) with M14; 61.5 µM (inactive) in the test on MOLT-4; 24.4 µM (inactive) with NCI-H226. The GI50 in the test on OVCAR-3 was 34.6 µM (inactive); in the test on OVCAR-8, 18 µM (inactive); with RPMI-8226 it was 75.3 µM (inactive); with SF-268 it was 36.8 µM (inactive); with SF-295, 41.9 µM (inactive); in the test with SK-MEL-28, 45.8 µM (inactive). The GI50 in the test with SNB-19 was 42.7 µM (inactive); in the test on SR it was 60.7 µM (inactive); in the test with TK-10 it was 76.9 µM (inactive).
For `CNS(=O)(=O)NNS(=O)(=O)c1ccc(C)cc1`, the GI50 in the test on COLO 205, with EKVX, in the test with HL-60, in the test with KM12, with M14 and in the test on MOLT-4 was > 100 µM (inactive) each time. Besides, the GI50 in the test with OVCAR-3, with OVCAR-8, in the test on RPMI-8226, with SF-268, with SF-295 and in the test with SK-MEL-28 was > 100 µM (inactive) in each case. Moreover, the GI50 in the test with SK-MEL-2, in the test with SK-MEL-5, with SNB-19, in the test on SR and in the test on TK-10 was > 100 µM (inactive) in each case.
With `Cc1cccc(C)c1NC(=O)CCCC(=O)CC(=O)/C=C/c1ccccc1`, the GI50 in the test on COLO 205, in the test with KM12, with M14, in the test with MOLT-4, in the test on OVCAR-3 and with OVCAR-8 was > 100 µM (inactive) in each case. The GI50 with RPMI-8226, in the test with SF-268, with SK-MEL-28, with SK-MEL-2, with SK-MEL-5 and in the test with SNB-19 was > 100 µM (inactive) each time. The GI50 in the test on TK-10 is > 100 µM (inactive).
As for `Cc1ccc2nc(/C(=C/c3ccc(/C=C(\NC(=O)c4ccccc4)c4nc5ccc(C)cc5[nH]4)c(C)c3)NC(=O)c3ccccc3)[nH]c2c1`, the GI50 in the test on COLO 205 was 25.1 µM (inactive); with EKVX, 12.5 µM (inactive); with KM12 it was 17.1 µM (inactive); in the test on M14, 23 µM (inactive); in the test with MOLT-4, 0.383 µM (active); with NCI-H226, 26.4 µM (inactive). Also, the GI50 in the test with OVCAR-3 is 6.19 µM (inactive); with OVCAR-8 it was 7.01 µM (inactive); with RPMI-8226, 16.6 µM (inactive); in the test on SF-268, 3.45 µM (inactive); with SK-MEL-28, 25.2 µM (inactive); in the test on SK-MEL-2, 5.13 µM (inactive). Further, the GI50 in the test on SK-MEL-5 was 1.91 µM (inactive); in the test with SNB-19 it was 31.2 µM (inactive); in the test on SR, 27.2 µM (inactive); with TK-10, 47.1 µM (inactive).
For `CCN(CC)c1ccc(/N=N\c2ccc(-c3nc4ccc[n+](C)c4s3)cc2)cc1`, the GI50 in the test with COLO 205 was 3.24 µM (inactive); with EKVX it was 24 µM (inactive); with HL-60, 1.77 µM (inactive); with KM12 it was 2.76 µM (inactive); in the test with M14 it was 13.2 µM (inactive); in the test with MOLT-4 it was 2.84 µM (inactive). Also, the GI50 in the test on NCI-H226 is 6.5 µM (inactive); in the test on OVCAR-3, 3.53 µM (inactive); in the test with OVCAR-8, 8.57 µM (inactive); in the test on RPMI-8226, 2.79 µM (inactive); with SF-268, 6.07 µM (inactive); in the test on SF-295 it was 17.8 µM (inactive). For the same molecule, the GI50 in the test on SK-MEL-2 was 7.83 µM (inactive); with SK-MEL-5 it was 5.48 µM (inactive); in the test with SNB-19, 5.3 µM (inactive); with SR, 4.5 µM (inactive); with TK-10, 20 µM (inactive).
For `C#CCC[C@@H]1O[C@@]1(C)CC/C=C(\C)CC/C=C/C=O`, the GI50 in the test on COLO 205 was 26.7 µM (inactive); in the test with EKVX it was 58.3 µM (inactive); in the test on HL-60, 23.9 µM (inactive); in the test on KM12, 36.9 µM (inactive); in the test on M14, 21.3 µM (inactive); in the test with MOLT-4, 22.4 µM (inactive). Also, the GI50 is 60.3 µM (inactive) with NCI-H226; 29.8 µM (inactive) with OVCAR-3; 18.6 µM (inactive) in the test with OVCAR-8; 19.3 µM (inactive) with RPMI-8226; 22.2 µM (inactive) in the test with SF-268; 26.5 µM (inactive) in the test on SF-295. The GI50 with SK-MEL-2 is 55.7 µM (inactive); with SNB-19, 45.1 µM (inactive); in the test with SR it was 26.4 µM (inactive).
`CC#N.O[C@@H]1CCCC[C@H]1O.O[C@@H]1CCCC[C@H]1O.[TeH2]`: the GI50 with COLO 205 is > 100 µM (inactive); with HL-60, 14.6 µM (inactive); with KM12, 42.7 µM (inactive); with M14, > 100 µM (inactive); in the test with MOLT-4, 27.4 µM (inactive); in the test with NCI-H226 it was 46.1 µM (inactive). Further, the GI50 with OVCAR-3 was 19.1 µM (inactive); in the test on OVCAR-8, 19 µM (inactive); in the test on RPMI-8226, 26.7 µM (inactive); with SF-268, > 100 µM (inactive); in the test on SF-295, 18.6 µM (inactive); with SK-MEL-28 it was > 100 µM (inactive). Also, the GI50 in the test with SK-MEL-2 is > 100 µM (inactive); in the test with SK-MEL-5, 33.3 µM (inactive); in the test on SNB-19, 39.8 µM (inactive); with SR it was 24.8 µM (inactive); with TK-10, > 100 µM (inactive).
`CN(C)CCC1(C2=CCCC2)CC/C(=C\c2ccc3c(c2)OCO3)C1=O` (stereo not given): the GI50 was 18.7 µM (inactive) in the test on COLO 205; 15.8 µM (inactive) in the test with EKVX; 14.3 µM (inactive) with HL-60; 15.8 µM (inactive) in the test with KM12; 14.7 µM (inactive) with M14; 12.3 µM (inactive) with MOLT-4. In addition, the GI50 was 15.8 µM (inactive) in the test with OVCAR-3; 15.6 µM (inactive) with OVCAR-8; 23.7 µM (inactive) in the test on RPMI-8226; 14.4 µM (inactive) in the test on SF-268; 16 µM (inactive) in the test with SF-295; 14.3 µM (inactive) in the test with SK-MEL-28. Also, the GI50 in the test on SK-MEL-2 is 16.9 µM (inactive); in the test on SK-MEL-5 it was 14.1 µM (inactive); in the test on SNB-19, 18.2 µM (inactive); in the test with TK-10 it was 15.8 µM (inactive).
